Literature values in patent publication US9056184B2, “Methods for renal denervation” (priority 2010, dated 2015).

Experiments:
[1] = molecular target: tetrodotoxin-sensitive voltage-gated sodium channel (TTX-s Na+ channel); details: read-out: binding affinity
[2] = molecular target: tetrodotoxin-resistant voltage-gated sodium channel (TTX-r Na+ channel)
[3] = after initiation of therapy
CYP3A4 = details: in vivo
[4] = in vivo

NC1=N[C@H](O)[C@H]2[C@H]3O[C@]4(O)O[C@@H]([C@@H](O)[C@@]2(N1)[C@@H]4O)[C@]3(O)CO [Tetrodotoxin]
Kd [1]: 5 to 15 nM | binding affinity [2]: low micromolar

NC(=O)N1c2ccccc2C=Cc2ccccc21 [carbamazepine, Carbamazepine]
time to stable carbamazepine concentrations [3]: 2-3 weeks | time for auto-induction to reach a plateau (CYP3A4): 5 to 7 days

[Li] [lithium]
toxic amounts [4]: > 1.5 mmol/L
